# Source: US12077503B2, “Substituted cyclic amides and their use as herbicides” (FMC CORPORATION, priority 2015, dated 2024)
# Where two headings read alike, the source gives them in different places.
# Assays:
# Assay in all cases: Test A postemergence
# Assay type in all cases: in vivo
# [1] = system: wheat (Triticum aestivum); details: Triticum aestivum, post-emergence, 240 h; for plant injury at 125 g/ha: 125 g ai/ha, read-out: Wheat plant response rating (0 to 100 scale); for plant injury at 500 g/ha: 500 g ai/ha, visual injury, 0 to 100 scale (0 no effect, 100 complete control), approx. 10 d, read-out: Plant response rating, Wheat
# Outline: (§1)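 Each rating is a visual injury score from 0 to 100 given about 10 d after treatment, judged against untreated controls kept alongside in the greenhouse. In loam soil–sand blend, seeds got a preemergence directed soil spray, while postemergence plants were 2 to 10 cm tall at spraying.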
# [2] = system: ragweed (common ragweed, Ambrosia elatior); details: Ambrosia artemisiifolia, post-emergence, 240 h; for pest or weed control at 125 g/ha: 125 g ai/ha, read-out: Ragweed plant response rating (0 to 100 scale); for pest or weed control at 500 g/ha: 500 g ai/ha
# Outline: as §1
# [3] = system: barnyardgrass (Echinochloa crus-galli); details: Echinochloa crus-galli, post-emergence, 240 h; for pest or weed control at 125 g/ha: 125 g ai/ha; for pest or weed control at 500 g/ha: 500 g ai/ha
# Outline: as §1
# [4] = system: pigweed (Amaranthus retroflexus); details: Amaranthus retroflexus, post-emergence, 240 h; for pest or weed control at 125 g/ha: 125 g ai/ha, read-out: Pigweed plant response rating (0 to 100 scale); for pest or weed control at 500 g/ha: 500 g ai/ha
# Outline: as §1
# [5] = system: Galium (catchweed bedstraw, Galium aparine); details: Galium, post-emergence, 240 h; for pest or weed control at 125 g/ha: 125 g ai/ha, read-out: Galium plant response rating (0 to 100 scale); for pest or weed control at 500 g/ha: 500 g ai/ha
# Outline: as §1
# [6] = system: corn (Zea mays); details: Zea mays, post-emergence, 240 h; for plant injury at 125 g/ha: 125 g ai/ha, read-out: Corn plant response rating (0 to 100 scale); for plant injury at 500 g/ha / Corn plant response rating (crop injury, 0 = no effect, 100 = complete kill) at 500 g/ha: 500 g ai/ha; for plant injury at 500 g/ha: 0 to 100 scale, 0 is no effect, 100 is complete control, read-out: Corn plant response rating; for Corn plant response rating (crop injury, 0 = no effect, 100 = complete kill) at 500 g/ha: visual injury, 0 to 100 scale (0 no effect, 100 complete control), approx. 10 d
# Outline: as §1
# [7] = postemergence, visual injury vs untreated controls after approx. 10 d, 0 = no effect, 100 = complete control
# [8] = postemergence, 0 to 100 scale, 0 is no effect, 100 is complete control, read-out: Ragweed plant response rating
# [9] = postemergence, visual injury vs untreated controls after approx. 10 d, 0 = no effect, 100 = complete control, read-out: Barnyardgrass plant response rating (0 to 100 scale)
# [10] = postemergence, 0 to 100 scale, 0 is no effect, 100 is complete control, read-out: Barnyardgrass plant response rating
# [11] = postemergence, 0 to 100 scale, 0 is no effect, 100 is complete control, read-out: Pigweed plant response rating
# [12] = postemergence, 0 to 100 scale, 0 is no effect, 100 is complete control, read-out: Galium plant response rating
# [13] = Postemergence, visual injury, 0 to 100 scale (0 no effect, 100 complete control), approx. 10 d, read-out: Plant response rating, Ragweed
# [14] = Postemergence, visual injury, 0 to 100 scale (0 no effect, 100 complete control), approx. 10 d, read-out: Plant response rating, Barnyardgrass
# [15] = Postemergence, visual injury, 0 to 100 scale (0 no effect, 100 complete control), approx. 10 d, read-out: Plant response rating, Pigweed
# [16] = Postemergence, visual injury, 0 to 100 scale (0 no effect, 100 complete control), approx. 10 d, read-out: Plant response rating, Galium
# [17] = Postemergence, visual rating about 10 d after treatment
SMILES,"plant injury at 125 g/ha [1, 7]","pest or weed control at 125 g/ha [2, 7]","pest or weed control at 500 g/ha [2, 8]","pest or weed control at 125 g/ha [3, 9]","pest or weed control at 500 g/ha [3, 10]","pest or weed control at 125 g/ha [4, 7]","pest or weed control at 500 g/ha [4, 11]","pest or weed control at 125 g/ha [5, 7]","pest or weed control at 500 g/ha [5, 12]","plant injury at 125 g/ha [6, 7]",plant injury at 500 g/ha ([6]; postemergence),plant injury at 500 g/ha ([1]; Postemergence),"pest or weed control at 500 g/ha [2, 13]","pest or weed control at 500 g/ha [3, 14]","pest or weed control at 500 g/ha [4, 15]","pest or weed control at 500 g/ha [5, 16]","Corn plant response rating (crop injury, 0 = no effect, 100 = complete kill) at 500 g/ha ([6]; Postemergence)",also measured
O=C1NC[C@H](c2cccc(C(F)(F)F)c2)C1C(=O)Nc1c(F)cccc1CO (some centres unmarked) [Compound 1240],0%,0%,0%,0%,0%,0%,0%,0%,0%,0%,0%,–,–,–,–,–,–,–
O=C1NC[C@H](c2cccc(C(F)(F)F)c2)C1C(=O)Nc1ccccc1CO (some centres unmarked) [Compound 1244],0%,0%,0%,50%,80%,0%,0%,0%,20%,0%,40%,–,–,–,–,–,–,–
CCc1ccc([C@H]2CNC(=O)[C@@H]2C(=O)Nc2c(F)cccc2F)cc1 [Compound 1248],0%,0%,–,0%,–,0%,–,0%,–,0%,–,0%,0%,50%,0%,0%,0%,–
CN1C[C@H](c2ccc(F)c(C#N)c2)[C@@H](C(=O)Nc2cccc(F)c2F)C1=O [Compound 1255],–,0%,–,90%,–,0%,–,40%,–,60%,–,60%,40%,100%,30%,60%,90%,–
CN1C[C@H](c2ccc(C(F)F)cc2)[C@@H](C(=O)Nc2ccc(F)c(F)c2F)C1=O [Compound 1260],–,50%,–,90%,–,50%,–,70%,–,90%,–,90%,70%,90%,70%,70%,90%,–
Cc1nc([C@H]2CN(C)C(=O)[C@@H]2C(=O)Nc2cccc(F)c2F)cs1 [Compound 1281],–,–,–,–,–,–,–,–,–,–,–,0%,0%,80%,0%,50%,0%,"plant injury at 125 g/ha [1, 17]: 0%; pest or weed control at 125 g/ha [2, 17]: 0%; pest or weed control at 125 g/ha ([3]; Postemergence, visual rating about 10 d after treatment, read-out: Barnyardgrass plant response rating (0 to 100 scale, 0 no effect, 100 complete control)): 20%; pest or weed control at 125 g/ha [4, 17]: 0%; pest or weed control at 125 g/ha [5, 17]: 0%; plant injury at 125 g/ha [6, 17]: 0%"
